In patent US9920061B2, “Imidazo[1,5-A]pyrimidinyl carboxamide compounds and their use in the treatment of medical disorders” (Lysosomal Therapeutics Inc., priority 2016, dated 2018):
In brackets after ≈: the same amount, converted by molar mass.

What was measured:
[1] = target: T1, glucocerebrosidase (Gcase) (Homo sapiens, UniProt P04062); assay: Glucocerebrosidase (Gcase) activation assay, 4-methylumbelliferyl-beta-D-glucopyranoside substrate, with saposin C; assay type: biochemical; details: for activation at 0.1 µM: test compound at 0.1 μM, read-out: Percent Gcase Activation, 0.1 μM Test Compound; for activation at 1 µM: test compound at 1.0 μM, read-out: Percent Gcase Activation, 1 μM Test Compound
T1 sequence (P04062 40-536): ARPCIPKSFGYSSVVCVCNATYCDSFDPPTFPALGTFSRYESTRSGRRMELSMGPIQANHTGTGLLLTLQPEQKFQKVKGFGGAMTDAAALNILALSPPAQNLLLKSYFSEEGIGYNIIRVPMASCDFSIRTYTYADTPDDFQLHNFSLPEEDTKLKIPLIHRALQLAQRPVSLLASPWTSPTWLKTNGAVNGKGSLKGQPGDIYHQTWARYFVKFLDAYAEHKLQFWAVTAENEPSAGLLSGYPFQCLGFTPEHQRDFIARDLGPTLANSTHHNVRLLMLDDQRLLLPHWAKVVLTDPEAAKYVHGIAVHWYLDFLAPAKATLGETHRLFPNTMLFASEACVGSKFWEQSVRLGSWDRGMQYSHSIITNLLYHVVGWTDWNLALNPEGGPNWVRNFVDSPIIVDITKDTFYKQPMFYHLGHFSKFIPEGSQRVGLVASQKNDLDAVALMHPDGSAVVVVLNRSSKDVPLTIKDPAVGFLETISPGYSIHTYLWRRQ
Summary of the method: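 Compounds tested at 1.0 and 0.1 μM, then in 8-point 3-fold curves, were pre-incubated 30 min at room temperature with 10 nM GCase plus 100 nM saposin C in PS/triton micelles, pH 4.7. Reaction with substrate (2 mM in micelles before mixing) ran 15 min; stopped at pH 12.5, read at ex 365/em 440 nm.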

[2] = Compound solubility in water; assay type: physicochemical; details: in water

Compound | activation at 0.1 µM [1] [%] | activation at 1 µM [1] [%] | solubility [2] [µg/mL]
C#CC(C)(C)NC(=O)c1ncn2c(C)cc(-c3ccc4c(c3)OCO4)nc12 [IV-26] | 10 to 20 | > 60 | 0.5 (≈ 1.38 µM)
C#CC(C)(C)NC(=O)c1ncn2c(C)cc(-c3cccc4c3OCO4)nc12 [IV-27] | < 10 | < 30 | 1.1 (≈ 3.04 µM)
Cc1cc(-c2ccc3c(c2)OCO3)nc2c(C(=O)N[C@@H](C)C3CC3)ncn12 [IV-28] | > 20 | > 60 | 1.1 (≈ 3.02 µM)
Cc1cc(-c2ccc3c(c2)OCO3)nc2c(C(=O)N[C@H](C)C3CC3)ncn12 [IV-29] | > 20 | > 60 | 1.1 (≈ 3.02 µM)
Cc1cc(-c2cccc3c2OCO3)nc2c(C(=O)N[C@@H](C)C3CC3)ncn12 [IV-30] | > 20 | > 60 | 0.5 (≈ 1.37 µM)
Cc1cc(-c2cccc3c2OCO3)nc2c(C(=O)N[C@H](C)C3CC3)ncn12 [IV-31] | 10 to 20 | > 60 | 1.4 (≈ 3.84 µM)
Cc1cc(-c2cscc2C#N)nc2c(C(=O)NC(C3CC3)C(F)(F)F)ncn12 (stereo not drawn) [IV-32] | > 20 | > 60 | 0.6 (≈ 1.48 µM)
Cc1cc(-c2ccc(C#N)o2)nc2c(C(=O)NC(C3CC3)C(F)(F)F)ncn12 (stereo not drawn) [IV-33] | > 20 | > 60 | 0.7 (≈ 1.8 µM)
Cc1cc(-c2cccc(C#N)c2F)nc2c(C(=O)NC(C3CC3)C(F)(F)F)ncn12 (stereo not drawn) [IV-36] | > 20 | > 60 | 0.5 (≈ 1.2 µM)
Cc1cc(-c2sccc2C#N)nc2c(C(=O)NC(C3CC3)C(F)(F)F)ncn12 (stereo not drawn) [IV-37] | > 20 | > 60 | 2.4 (≈ 5.92 µM)
Cc1cc(-c2cccc(F)c2C#N)nc2c(C(=O)NC(C3CC3)C(F)(F)F)ncn12 (stereo not drawn) [IV-38] | > 20 | > 60 | 0.4 (≈ 0.958 µM)
Cc1cc(-c2cccc(C#N)n2)nc2c(C(=O)NC(C3CC3)C(F)(F)F)ncn12 (stereo not drawn) [IV-39] | < 10 | 30 to 60 | 0.3 (≈ 0.749 µM)
Cc1cc(-c2ccccc2CC#N)nc2c(C(=O)NC(C3CC3)C(F)(F)F)ncn12 (stereo not drawn) [IV-40] | < 10 | 30 to 60 | 15.4 (≈ 37.3 µM)
Cc1cc(-c2cccc3ncnn23)nc2c(C(=O)NC(C3CC3)C(F)(F)F)ncn12 (stereo not drawn) [IV-41] | < 10 | 30 to 60 | 3.5 (≈ 8.43 µM)
Cc1cc(-c2cccn3cnnc23)nc2c(C(=O)NC(C3CC3)C(F)(F)F)ncn12 (stereo not drawn) [IV-42] | < 10 | > 60 | 2.1 (≈ 5.06 µM)
Cc1cc(-c2ccc3nncn3c2)nc2c(C(=O)NC(C3CC3)C(F)(F)F)ncn12 (stereo not drawn) [IV-43] | < 10 | < 30 | 17.5 (≈ 42.1 µM)
Cc1cc(-c2ccc(F)cc2)nc2c(C(=O)NC(C3CC3)C(F)(F)F)ncn12 (stereo not drawn) [IV-44] | > 20 | > 60 | 0.8 (≈ 2.04 µM)
Cc1cc(-c2ccc(F)cc2)nc2c(C(=O)N[C@H](C3CC3)C(F)(F)F)ncn12 [IV-45] | > 20 | > 60 | 2.5 (≈ 6.37 µM)
Cc1cc(-c2ccc(F)cc2)nc2c(C(=O)N[C@@H](C3CC3)C(F)(F)F)ncn12 [IV-46] | > 20 | > 60 | 0.8 (≈ 2.04 µM)
Cc1cc(-c2cccc3scnc23)nc2c(C(=O)NC(C3CC3)C(F)(F)F)ncn12 (stereo not drawn) [IV-47] | < 10 | 30 to 60 | 3.8 (≈ 8.81 µM)
Cc1cc(-c2cccc3ncsc23)nc2c(C(=O)NC(C3CC3)C(F)(F)F)ncn12 (stereo not drawn) [IV-48] | 10 to 20 | > 60 | 0.4 (≈ 0.927 µM)
Cc1cc(-c2ccc3scnc3c2)nc2c(C(=O)NC(C3CC3)C(F)(F)F)ncn12 (stereo not drawn) [IV-49] | > 20 | > 60 | 0.6 (≈ 1.39 µM)
Cc1cc(-c2nccs2)nc2c(C(=O)NC(C3CC3)C(F)(F)F)ncn12 (stereo not drawn) [IV-50] | 10 to 20 | > 60 | 1.5 (≈ 3.93 µM)
Cc1cc(-c2cnsc2)nc2c(C(=O)NC(C3CC3)C(F)(F)F)ncn12 (stereo not drawn) [IV-51] | > 20 | > 60 | 2.1 (≈ 5.51 µM)
Cc1cc(-c2cnsc2)nc2c(C(=O)N[C@H](C3CC3)C(F)(F)F)ncn12 [IV-52] | 10 to 20 | > 60 | 15.4 (≈ 40.4 µM)
